The assay relates to T1, laccase cocktail (LacI/LacII) from Pycnoporus sanguineus CS43.
T1 construct: gene Lac I; native secreted enzymes
Description: transformation rates at varied EDC concentration, Michaelis-Menten fit (HPLC-UV). The assay is classed as biochemical, Trametes sanguinea. To be noted: free laccase cocktail (two isoforms), 100 U/L, pH 5 McIlvaine buffer, 25 °C, no mediator, read-out: Catalytic parameters / K m /. From the text: transformation rates at varied EDC concentration, Michaelis-Menten fit (HPLC-UV) on laccase cocktail (LacI/LacII) from Pycnoporus sanguineus CS43

Like-named read-outs stand apart in the source and are kept apart here.

The values below come from article PMC4498228, “Biotransformation of Endocrine-Disrupting Compounds in Groundwater: Bisphenol A, Nonylphenol, Ethynylestradiol and Triclosan by a Laccase Cocktail from Pycnoporus sanguineus CS43” (Water, Air, and Soil Pollution, 2015).

Regarding `CC(C)(c1ccc(O)cc1)c1ccc(O)cc1` [BPA, bisphenol A], the Km (called Kapp in the text) came to 482 µM. For the molecule `C#C[C@]1(O)CC[C@H]2[C@@H]3CCc4cc(O)ccc4[C@H]3CC[C@@]21C` [EE2, 17-α-ethynylestradiol], under “apparent Km”, the Km was 32 µM. Same read-out and setting: with `CCCCCCCCCc1ccc(O)cc1` [NP, 4-nonylphenol] the figure was 73.6 µM; with `Oc1cc(Cl)ccc1Oc1ccc(Cl)cc1Cl` [TCS, triclosan], 302 µM.
